Results published in US12714696B2, “Low dose fluralaner compositions for protection against parasitic invertebrate pest” (VIRBAC, priority 2019, dated 2026).

System: C. felis fleas
Assay: Efficacy against fleas on dogs, oral 250/35/600 μg/kg study
Format: in vivo
Details: Day 3, following 3 consecutive doses of 250 μg/kg per day
Method: The second objective is to investigate the pharmacodynamics between the fluralaner plasmatic dose and the effectiveness against ticks. • IVP: Investigational Veterinary Product, is pure Fluralaner+DMSO (250 μg/kg on Days 0 to 3 (0.25 mL/kg), then 35 μg/kg on Days 4 to 9 (0.35 mL/kg), then 600 μg/kg on Day 11) • Control product is DMSO (0.25 mL/kg on Days 0 to 3, then 0.35 mL/kg on Days 4 to 9)
Dogs were infested with approximately 50 (±4) viable, adult, unfed R. sanguineus ticks on Days 1, 3, 5, 8, 10, 12, 16, 22, 26 and 30 to assess efficacy. Ticks will be removed and counted on Days 3, 5, 7 (48 hours±2 hours after infestation) and 9, 11, 13, 17, 24, 27, 32 (24 hours±2 hours after infestation). […] Fleas will be removed and counted on Days −5 (+1 day) and 3 (24 hours±2 hours after infestation).
The efficacy against ticks and fleas were calculated for the study groups at each assessment day according to the formulas given below.
Efficacy was calculated as follows: Efficacy (%)=100×(Mc−Mt)/Mc, where: • Mc=Mean number of live ticks (categories 1 to 2) or live fleas on dogs in the negative control group (group 1) at a specific time point. • Mt=Mean number of live ticks (categories 1 to 2) or live fleas on dogs in the IVP group (group 2) • at a specific time point.

Cc1cc(C2=NOC(c3cc(Cl)cc(Cl)c3)(C(F)(F)F)C2)ccc1C(=O)NCC(=O)NCC(F)(F)F (stereo not shown) [fluralaner, Fluralaner]
efficacy against fleas: 92%
